For orientation: Ki means the equilibrium dissociation constant of an inhibitor or competing ligand from its target.

Each structure is given as a SMILES string.

In the experiment the target is T1, Prostaglandin D2 receptor 2 (Homo sapiens, UniProt Q9Y5Y4).
T1 sequence (Q9Y5Y4 whole entry): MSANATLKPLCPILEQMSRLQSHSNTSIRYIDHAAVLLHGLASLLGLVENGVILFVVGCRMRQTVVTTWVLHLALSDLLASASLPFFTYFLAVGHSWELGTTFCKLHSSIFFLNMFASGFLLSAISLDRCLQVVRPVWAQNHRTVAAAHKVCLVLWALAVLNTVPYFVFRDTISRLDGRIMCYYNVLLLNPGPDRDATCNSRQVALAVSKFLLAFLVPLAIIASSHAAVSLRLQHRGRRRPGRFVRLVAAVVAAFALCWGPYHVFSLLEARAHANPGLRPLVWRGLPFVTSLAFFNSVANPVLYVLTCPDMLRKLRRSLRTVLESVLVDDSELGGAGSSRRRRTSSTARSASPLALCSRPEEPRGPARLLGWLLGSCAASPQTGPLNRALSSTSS
Briefly: Radioligand Binding Assay: The CRTH2 receptor binding assay is performed in a scintillation proximity assay (SPA) format with the radioligand [3H]-PGD2 (Perkin Elmer, NET616000MC). CHO-K1-hCRTH2 cell membranes are again homogenized by passing through a single use needle (Terumo, 23Gx1'') and diluted in SPA incubation buffer in suitable concentrations (0.5-10 ug protein/well). The SPA assay is set up in 96 well microtiter plates (Perkin Elmer, CatNo. 6005040) in SPA incubation buffer with a final volume of 200 ul per well and final concentration of 50 mM Tris-HCl, 10 mM MgCl2, 150 mM NaCl, 1 mM EDTA pH 7.4, 0.1% bovine serum albumin). The SPA assay mixture contains 60 ul of the membrane suspension, 80 ul of Wheat Germ Agglutinin coated PVT beads (GE Healthcare, RPNQ-0001, 0.3 mg/well), 40 ul of [3H]-PGD2 diluted in SPA buffer to a final concentration of 1 nM (50 000 dpm) and 20 ul of the test compound (dissolved in dimethylsulfoxid).

For the compound `CCc1nn(Cc2ccc(NC(=O)C3CCC(C(F)(F)F)CC3)cc2)c(CC)c1CC(=O)O` (stereo unspecified), the Ki came out at 23.9 nM.

The values above are taken from ChEMBL document CHEMBL3639247, “Pyrazole compounds as CRTH2 antagonists” (2014).
